According to ChEMBL document CHEMBL1144036, “Bornyl (3,4,5-trihydroxy)-cinnamate--an optimized human neutrophil elastase inhibitor designed by free energy calculations” (Bioorg Med Chem, 2008):

Target: T1, Neutrophil elastase (Homo sapiens, UniProt P08246)
T1 sequence (P08246 whole entry): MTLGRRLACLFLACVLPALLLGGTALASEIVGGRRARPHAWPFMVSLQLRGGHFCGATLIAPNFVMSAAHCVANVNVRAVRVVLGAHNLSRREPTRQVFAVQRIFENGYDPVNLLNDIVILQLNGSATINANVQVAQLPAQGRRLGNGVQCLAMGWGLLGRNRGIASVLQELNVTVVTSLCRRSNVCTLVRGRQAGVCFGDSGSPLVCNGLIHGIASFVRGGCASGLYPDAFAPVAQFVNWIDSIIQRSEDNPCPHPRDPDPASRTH
Assay: Inhibition of human neutrophil elastase

| Structure (SMILES) | IC50 [nM] |
| --- | --- |
| CC1(C)C2CC[C@]1(C)C(OC(=O)/C=C/c1ccc(O)c(O)c1)C2 (some centres not stated) | 1560 |
| CC1(C)C2CC[C@]1(C)C(OC(=O)/C=C/c1cc(O)c(O)c(O)c1)C2 (some centres not stated) | 540 |
